Data as given in patent US5565435A (Kabushiki Kaisha Hayashibara Seibutsu Kagaku Kenkyujo, priority 1991, dated 1996).
≈ marks a conversion by molar mass, not a printed value.

What was measured:
[1] = Antioxidation activity (hydroperoxide formed by oxidation of linoleic acid, HPLC); details: 200 ppm, 50° C., light-shielded
Method: Ten ml of about one % linoleic acid in ethanol solution, 10 ml of 50 mM phosphate buffer and 5 ml water were mixed, and 5 ml aliquots of the mixture were distributed to 5 ml-flasks. […] A half ml of solution was sampled from each flask at a prescribed time interval, and the sampled solution was subjected to high-performance liquid chromatography (HPLC) to analyze the amount of hydroperoxide which was formed as a result of the oxidation of linoleic acid. The conditions used in the analysis of hydroperoxide were as follows:
Apparatus : WATERS MODEL M-6000A, a pump system commercialized by Japan Waters Ltd., Tokyo, Japan;
Column : ODS-M column, a column commercialized by Shimadzu Techno-Research,Inc., Kyoto, Japan;
Column temperature : 35° C.
Eluate : water:methanol:acetic acid =75:25:0.1
Detection wave length: at 235 nm

Solubility in solvent = format: physicochemical; details: 25° C. water (pH 7)

Row | SMILES | Relative intensity determined with the peak area corresponding to hydroperoxide, sampling day 0 ([1]; day 0, Control 0.3) | Relative intensity determined with the peak area corresponding to hydroperoxide, sampling day 4 ([1]; day 4, Control 1.5) | Relative intensity determined with the peak area corresponding to hydroperoxide, sampling day 7 ([1]; day 7, Control 5.3) | Relative intensity determined with the peak area corresponding to hydroperoxide, sampling day 8 ([1]; day 8, Control 7.1) | solubility (Solubility in solvent) [µg/mL]
1 | Cc1c(C)c2c(c(C)c1O)CCC(C)(CCCC(C)CCCC(C)CCCC(C)C)O2 (racemic) [dl-α-Tocopherol] | 0.3 | 1.1 | 4.5 | 6.0 | 
2 | O=c1c(O)c(-c2ccc(O)c(O)c2)oc2cc(O)cc(O)c12 [quercetin] |  |  |  |  | ~2 (≈ 6.62 µM)
